Reference: paper PMC6133161, “Thiazoles with cyclopropyl fragment as antifungal, anticonvulsant, and anti-Toxoplasma gondii agents: synthesis, toxicity evaluation, and molecular docking study” (Medicinal Chemistry Research, 2018)
In brackets after ≈: the same amount, converted by molar mass.

Tested on: Toxoplasma gondii RH strain
Test: [3H]-uracil incorporation assay in VERO host cells

Nc1ccc(S(=O)(=O)Nc2ncccn2)cc1 [Sulfadiazine, reference compound]
Proliferation of Tg ± SD (1 µg/ml): 104.59 ±4.12% | Proliferation of Tg ± SD (5 µg/ml): 96.71 ±3.85% | Proliferation of Tg ± SD (25 µg/ml): 78.58 ±4.67% | Proliferation of Tg ± SD (50 µg/ml): 67.99 ±7.73% | Proliferation of Tg ± SD (125 µg/ml): 65.58 ±4.80% | Proliferation of Tg ± SD (250 µg/ml): 61.79 ±3.13% | Proliferation of Tg ± SD (500 µg/ml): 56.68 ±3.64% | Proliferation of Tg ± SD (1250 µg/ml): 45.17 ±1.03% | Proliferation of Tg ± SD (2500 µg/ml): 45.36 ±0.58% | IC50 (Toxoplasma gondii, Vero, read-out: IC50 anti-Tg): 936 µg/mL (≈ 3.74 mM)
